Source: ChEMBL document CHEMBL1649523, “Prospective open-label study of the administration of two-percent voriconazole eye drops” (2009)
Values after ≈ are worked out from the molar mass of the structure shown.

Assays:
Assay type in all cases: functional
Candida tropicalis = experiment: Antifungal against Candida tropicalis
Blastomyces dermatitidis = experiment: Antifungal against Blastomycoides dermatitidis
[1] = Antifungal against Acremonium alabamense; settings: Thielavia terrestris
Aspergillus fumigatus = experiment: Antifungal against Aspergillus fumigatus
Fusarium solani = experiment: Antifungal against Fusarium solani by microdilution technique
Curvularia = experiment: Antifungal against Curvularia
Candida albicans = experiment: Antifungal against Candida albicans
Scedosporium apiospermum = experiment: Antifungal against Scedosporium apiospermum
Aspergillus flavus = experiment: Antifungal against Aspergillus flavus
Candida parapsilosis = experiment: Antifungal against Candida parapsilosis; settings: Lodderomyces parapsilosis
Cryptococcus neoformans = experiment: Antifungal against Cryptococcus neoformans
Talaromyces marneffei = experiment: Antifungal against Penicillium marneffei
[2] = Antifungal against Coccidioides immitis
[3] = Antifungal against Scedosporium
Fusarium sp. = experiment: Antifungal against Fusarium sp.
[4] = Antifungal against Paecilomyces lilacinus; settings: Purpureocillium lilacinum
Histoplasma capsulatum = experiment: Antifungal against Histoplasma capsulatum

## C[C@@H](c1ncncc1F)[C@](O)(Cn1cncn1)c1ccc(F)cc1F [VORICONAZOLE]
Candida tropicalis
  MIC90: > 0.25 µg/mL
Blastomyces dermatitidis
  MIC90: 0.25 µg/mL (≈ 0.716 µM)
[1]
  MIC90: 0.25 µg/mL (≈ 0.716 µM)
Aspergillus fumigatus
  MIC90: 0.5 µg/mL (≈ 1.43 µM)
Fusarium solani
  MIC90: 2 µg/mL (≈ 5.73 µM)
Curvularia
  MIC90: 0.06 µg/mL (≈ 0.172 µM)
Candida albicans
  MIC90: 0.06 µg/mL (≈ 0.172 µM)
Scedosporium apiospermum
  MIC90: 0.5 µg/mL (≈ 1.43 µM)
Aspergillus flavus
  MIC90: 0.5 µg/mL (≈ 1.43 µM)
Candida parapsilosis
  MIC90: 0.12 µg/mL (≈ 0.344 µM)
Cryptococcus neoformans
  MIC90: 0.06 µg/mL (≈ 0.172 µM)
Talaromyces marneffei
  MIC90: 0.03 µg/mL (≈ 0.0859 µM)
[2]
  MIC90: 0.25 µg/mL (≈ 0.716 µM)
[3]
  MIC90: 0.5 µg/mL (≈ 1.43 µM)
Fusarium sp.
  MIC90: 0.25 µg/mL (≈ 0.716 µM)
[4]
  MIC90: 0.5 µg/mL (≈ 1.43 µM)
Histoplasma capsulatum
  MIC90: 0.25 µg/mL (≈ 0.716 µM)
